Test system: LAT condensation in primary mouse T cells
Test: Ligand potency for LAT condensation (cumulative distinct LAT condensates per cell)
Assay type: cell-based
Description: Single-molecule TIRF images are taken at the same power dosage (power*exposure) , either by high laser illumination intensity (8 mW) and short exposure time (25 ms) or by low laser illumination intensity (0.4 mW) and long exposure time (500 ms). Single-molecule TIRF images of long exposure time (500 ms) were collected every 2 to 4 s to localize single pMHC-TCR using a laser illumination intensity of 0.4 mW. LAT-eGFP was monitored at 0.4 mW every 2 to 4 s. When cells were imaged to measure LAT condensation only, the cells were imaged as they landed, or within 60 s of landing, for a duration of 300 s. Cells imaged for NFAT-mCherry was done by epifluorescence using 150-ms exposure time every 50 s at 3 and 6 μm above the coverslip to monitor NFAT dynamics. NFAT monitoring continued for 30 min unless otherwise stated.
LAT condensates were initially tracked with TrackMate’s automated workflows and then each track was manually adjusted for proper linking/detection. A pMHC binding event was considered productive if there existed a LAT condensate trajectory whose first frame of detection could be found within 250 nm of the binding event.
Data presented in Fig. 5 originated from T cells that were exposed to supported membranes containing 600 molecules μm^−2 of ICAM-1 and 0.5 molecules μm^−2 pMHC after loading MHC with one of the peptides from the panel. […]

Which “rank of productivity in LAT condensate number” value (MCC, T102S, ER60, T102E, cumulative time-series Fig. 5b) does the source give for “ANERAELIAYLTQAAEK [T102E, null altered peptide]” here?
The value was “least”.

And the “LAT signal of null pMHC + ICAM-1 condition” value (versus ICAM-1 only)?
The value was “did not produce any LAT signal over background levels”.

— paper PMC9718779, “Discrete LAT condensates encode antigen information from single pMHC:TCR binding events” (Nature Communications, 2022)
